Test results: patent US7122173B2, “Agent for the treatment of bladder irritative symptoms accompanied by benign prostatic hyperplasia” (Kyowa Hakko Kogyo Co., Ltd., priority 2001, dated 2006)

What was measured:
[1] = test system: delayed rectifier K^+ channel; experiment: Voltage clamp, delayed rectifier K+ currents in Fast Blue-labeled capsaicin-sensitive bladder afferent neurons; assay type: cell-based, rat; details: Compound 1 1.0 × 10^−6 mol/L
Protocol: (§1) Experiments were performed on adult female Sprague Dawley rats. First and second series of the experiments were performed, respectively, in unidentified DRG neurons and a specific population of DRG neurons innervating the urinary bladder. The population of DRG neurons that innervate the urinary bladder were labeled by retrograde axonal transport of the fluorescent dye, Fast Blue (4% w/v) (Polyloy, Gross Umstadt, Germany), injected into the wall of the bladder in halothane-anesthetized animals 7 days before the dissociation. The dye was injected with a 28 gauge needle at three to six sites on the dorsal surface of the organ (5–6 μL per site, total volume of 20–30 μL). Each injection site was washed with saline to minimize contamination of adjacent organs with the dye.
Freshly dissociated neurons from DRG were prepared from halothane-anesthetized animals. […]
Dye-labeled primary afferent neurons that innervate the urinary bladder were identified using an inverted phase-contrast microscope (Nikon, Tokyo, Japan) with fluorescent attachments (UV-1A filter; excitation wavelength, 365 nm). […] All recordings were made with an Axopatch-1D patch-clamp amplifier (Axon Instruments, Foster City, Calif.), and data were acquired and analyzed by PCLAMP software (Axon Instruments).
In voltage-clamp recordings, outward K^+ currents and inward Na^+ currents were measured. […]

[2] = test system: slowly-inactivating A-type K^+ channel; experiment: Voltage clamp, slowly-inactivating A-type K+ currents (HP −90 mV) in unidentified DRG neurons; assay type: cell-based, rat; details: for K+ current HP: −90 mV (slowly-inactivating A-type), relative value (before drug = 1): unidentified DRG neurons
Protocol: as §1
Freshly dissociated neurons from DRG were prepared from halothane-anesthetized animals. L6 and S1 DRG were dissected from animals and then dissociated in a shaking bath for 25 minutes at 35° C. with 5 mL DMEM (Sigma) containing 0.3 mg/mL trypsin (Type 3, Sigma), 1 mg/mL collagenase (Type 1, Sigma), and 0.1 mg/mL deoxyribonuclease (Type 4, Sigma). Trypsin inhibitor (Type 2a, Sigma) was then added thereto to neutralize the activity of trypsin. Individual DRG cell bodies were isolated by trituration and then plated on a poly-L-lysine-coated 35 mm Petri dishes.
Dye-labeled primary afferent neurons that innervate the urinary bladder were identified using an inverted phase-contrast microscope (Nikon, Tokyo, Japan) with fluorescent attachments (UV-1A filter; excitation wavelength, 365 nm). Gigaohm-seal whole-cell recordings were performed at room temperature (20–22° C.) on each labeled neuron in a culture dish that usually contained three to seven labeled cells among a few hundred unlabeled neurons. The internal solution contained (in mmol/L): KCl 140, CaCl2 1, MgCl2 2, EGTA 11, HEPES 10, Mg-ATP 2, and Tris-GTP 0.4 adjusted to pH 7.4 with KOH. Patch electrodes had resistances of 1–4 M Ω when filled with the internal solution. Neurons were superfused at a flow rate of 1.5 mL/minutes with an external solution containing (in mmol/L): NaCl 150, KCl 5, CaCl2 2.5, MgCl2 1, HEPES 10, and D-glucose 10, adjusted to pH 7.4 with NaOH. All recordings were made with an Axopatch-1D patch-clamp amplifier (Axon Instruments, Foster City, Calif.), and data were acquired and analyzed by PCLAMP software (Axon Instruments).
In voltage-clamp recordings, outward K^+ currents and inward Na^+ currents were measured. For the isolation of K^+ currents, the external solution was changed to one containing (in mmol/L): choline-Cl 150, KOH 5, CaCl2 0.03, HEPES 10, Mg(OH)2 3, and D-glucose 10, adjusted to pH 7.4 with HCl.
In first series of experiments using unidentified DRG neurons, outward K^+ currents were evoked by voltage steps to +60 mV, 800 ms long from a holding potentials of −90 mV, this was followed by a 1-second conditioning pre-pulse to −20 mV followed by a second pulse to +60 mV, identical to the first in the sequence. In the second series of experiments using Fast Blue-labeled bladder afferent neurons, slowly-inactivating A-type K^+ currents were isolated by subtraction of outward K^+ currents activated from a holding potential of −40 mV (on the condition of inactivation of the majority of slowly-inactivating A-type K^+ currents) from those activated from a holding potential of −120 mV (on the condition of full activation of slowly-inactivating A-type K^+ currents). A compound was added cumulatively, starting with a lower concentration. Currents were measured at the maximum (peak) and normalized to control (before addition of the compound).
The currents at a holding potential (HP) of −90 mV are results of the measurement of slowly-inactivating A-type K^+ currents, and the currents at an HP value of −20 mV are results of the measurement of delayed rectifier K^+ currents. […]

For `C[C@](O)(C(=O)Nc1cccc2c1C(=O)c1sccc1CS2(=O)=O)C(F)(F)F` [Compound 1, (S)-(+)-N-(5,5-dioxido-10-oxo-4,10-dihydrothieno[3,2-c][1]benzothiepin-9-yl)-3,3,3-trifluoro-2-hydroxy-2-methylpropanamide], the “Delayed rectifier HP: −40 mV, normalized to control” value [1] was 1.10 ± 0.01, the “K+ current HP: −90 mV, relative value (before drug = 1)” value (“K+ current HP: −90 mV, relative value” below) ([2]; Compound 1 1.0 × 10^−5 mol/L, in the presence of 5 μmol/L verapamil) was 0.99 ± 0.02 and the “K+ current HP: −90 mV, relative value” value ([2]; Compound 1 1.0 × 10^−5 mol/L, in the presence of 20 mmol/L tetraethylammonium) was 1.19 ± 0.01. For the same compound, the “K+ current HP: −90 mV (slowly-inactivating A-type), relative value (before drug = 1)” value ([2]; Compound 1 1.0 × 10^−5 mol/L) was 0.96 ± 0.05, the “K+ current HP: −90 mV, relative value” value ([2]; Compound 1 1.0 × 10^−6 mol/L, in the presence of 5 μmol/L verapamil) was 1.11 ± 0.03 and the “K+ current HP: −90 mV, relative value” value ([2]; Compound 1 1.0 × 10^−6 mol/L, in the presence of 20 mmol/L tetraethylammonium) was 1.19 ± 0.05. For the same compound, the “K+ current HP: −90 mV (slowly-inactivating A-type), relative value (before drug = 1)” value ([2]; Compound 1 1.0 × 10^−6 mol/L) was 1.06 ± 0.02, the “K+ current HP: −90 mV, relative value” value ([2]; Compound 1 1.0 × 10^−7 mol/L, in the presence of 5 μmol/L verapamil) was 1.13 ± 0.02 and the “K+ current HP: −90 mV, relative value” value ([2]; Compound 1 1.0 × 10^−7 mol/L, in the presence of 20 mmol/L tetraethylammonium) was 1.10 ± 0.01. For the same compound, the “K+ current HP: −90 mV (slowly-inactivating A-type), relative value (before drug = 1)” value ([2]; Compound 1 1.0 × 10^−7 mol/L) was 1.12 ± 0.03, the “K+ current HP: −90 mV (slowly-inactivating A-type), relative value (before drug = 1)” value ([2]; Compound 1 1.0 × 10^−8 mol/L) was 0.99 ± 0.08 and the “K+ current HP: −90 mV (slowly-inactivating A-type), relative value (before drug = 1)” value ([2]; Compound 1 2.5 × 10^−8 mol/L) was 1.07 ± 0.03. The “K+ current HP: −90 mV, relative value” value ([2]; Compound 1 5.0 × 10^−4 mol/L, in the presence of 5 μmol/L verapamil) was 0.61 ± 0.05, the “K+ current HP: −90 mV, relative value” value ([2]; Compound 1 5.0 × 10^−4 mol/L, in the presence of 20 mmol/L tetraethylammonium) was 0.29 ± 0.02 and the “K+ current HP: −90 mV, relative value” value ([2]; Compound 1 5.0 × 10^−4 mol/L, in the presence of 60 mmol/L tetraethylammonium) was 0.56 ± 0.05. The “K+ current HP: −90 mV, relative value” value ([2]; Compound 1 5.0 × 10^−5 mol/L, in the presence of 5 μmol/L verapamil) was 0.94 ± 0.02, the “K+ current HP: −90 mV, relative value” value ([2]; Compound 1 5.0 × 10^−5 mol/L, in the presence of 20 mmol/L tetraethylammonium) was 0.91 ± 0.04 and the “K+ current HP: −90 mV, relative value” value ([2]; Compound 1 5.0 × 10^−5 mol/L, in the presence of 60 mmol/L tetraethylammonium) was 1.15 ± 0.08. For the same compound, the “K+ current HP: −90 mV (slowly-inactivating A-type), relative value (before drug = 1)” value ([2]; Compound 1 5.0 × 10^−5 mol/L) was 0.83 ± 0.09, the “K+ current HP: −90 mV, relative value” value ([2]; Compound 1 5.0 × 10^−6 mol/L, in the presence of 5 μmol/L verapamil) was 1.02 ± 0.03 and the “K+ current HP: −90 mV, relative value” value ([2]; Compound 1 5.0 × 10^−6 mol/L, in the presence of 20 mmol/L tetraethylammonium) was 1.16 ± 0.03. The “K+ current HP: −90 mV, relative value” value ([2]; Compound 1 5.0 × 10^−6 mol/L, in the presence of 60 mmol/L tetraethylammonium) was 1.14 ± 0.05, the “K+ current HP: −90 mV, relative value” value ([2]; Compound 1 5.0 × 10^−7 mol/L, in the presence of 5 μmol/L verapamil) was 1.17 ± 0.03 and the “K+ current HP: −90 mV, relative value” value ([2]; Compound 1 5.0 × 10^−7 mol/L, in the presence of 20 mmol/L tetraethylammonium) was 1.15 ± 0.04. For the same compound, the “K+ current HP: −90 mV, relative value” value ([2]; Compound 1 5.0 × 10^−7 mol/L, in the presence of 60 mmol/L tetraethylammonium) was 1.11 ± 0.03, the “K+ current HP: −90 mV (slowly-inactivating A-type), relative value (before drug = 1)” value ([2]; Compound 1 5.0 × 10^−7 mol/L) was 1.15 ± 0.03 and the “K+ current HP: −90 mV, relative value” value ([2]; Compound 1 5.0 × 10^−8 mol/L, in the presence of 5 μmol/L verapamil) was 1.03 ± 0.02. The “K+ current HP: −90 mV, relative value” value ([2]; Compound 1 5.0 × 10^−8 mol/L, in the presence of 20 mmol/L tetraethylammonium) was 1.08 ± 0.02, the “K+ current HP: −90 mV, relative value” value ([2]; Compound 1 5.0 × 10^−8 mol/L, in the presence of 60 mmol/L tetraethylammonium) was 1.08 ± 0.02 and the “K+ current HP: −90 mV (slowly-inactivating A-type), relative value (before drug = 1)” value ([2]; Compound 1 5.0 × 10^−8 mol/L) was 1.07 ± 0.02. For the same compound, the “K+ current HP: −90 mV, relative value” value ([2]; Compound 1 5.0 × 10^−9 mol/L, in the presence of 20 mmol/L tetraethylammonium) was 1.02 ± 0.02, the “K+ current HP: −90 mV (slowly-inactivating A-type), relative value (before drug = 1)” value ([2]; Compound 1 5.0 × 10^−9 mol/L) was 1.01 ± 0.03 and the “Peak compound concentration for increase of slowly-inactivating A-type K^+ currents” value ([2]; unidentified DRG cells, HP −90 mV) was 1e-07 to 5e-07 mol/L.
